In publication PMC8844858, “Crystal structure and functional analysis of mycobacterial erythromycin resistance methyltransferase Erm38 reveals its RNA-binding site” (The Journal of Biological Chemistry, 2022):
Where two headings read alike, the source gives them in different places.

Biological target: T1, Erm38 (Mycolicibacterium smegmatis, UniProt Q79N53)
T1 construct: gene erm(38); truncated, residues 13-261 of 386 (disordered termini removed), about 30 kDa; synthetic codon-optimised gene in pNIC28-Bsa4, E. coli BL21(DE3)-T1R Rosetta; IMAC, cation exchange and size exclusion
T1 sequence (Q79N53 entry or part of it): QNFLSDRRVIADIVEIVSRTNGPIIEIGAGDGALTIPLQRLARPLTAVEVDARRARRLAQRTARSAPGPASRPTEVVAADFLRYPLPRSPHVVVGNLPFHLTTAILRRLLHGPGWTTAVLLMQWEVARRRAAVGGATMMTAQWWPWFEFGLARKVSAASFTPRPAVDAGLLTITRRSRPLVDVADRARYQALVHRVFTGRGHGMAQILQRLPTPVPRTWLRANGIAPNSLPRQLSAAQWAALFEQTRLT
Conditions: 2.25 A, SAM-binding site

Row | Structure (SMILES) | X-ray crystal structure (soak) (2 mM SAM soaked 24 h into native crystals) | X-ray crystal structure (soak) (2 mM sinefungin soaked 24 h into native crystals)
1 | C[S+](CC[C@H](N)C(=O)O)C[C@H]1O[C@@H](n2cnc3c(N)ncnc32)[C@H](O)[C@@H]1O (some centres unmarked) [SAM] | cocrystals with either SAM or the isosteric sinefungin inhibitor were obtained by soaking | 
2 | Nc1ncnc2c1ncn2[C@@H]1O[C@H](C[C@@H](N)CC[C@H](N)C(=O)O)[C@@H](O)[C@H]1O [SFG, sinefungin] |  | cocrystals with either SAM or the isosteric sinefungin inhibitor were obtained by soaking
